Measurements taken from US5527907A, “Macrolide immunomodulators” (Abbott Laboratories, priority 1994, dated 1996).
Read-outs that look alike come from different tables or passages of the source.

How the values were obtained:
[1] = tested on: human mixed lymphocyte reaction; test: human mixed lymphocyte reaction (MLR) assay; format: cell-based
Experimental: The immunosuppressant activity of the compounds of the present invention was determined using the human mixed lymphocyte reaction (MLR) assay described by Kino, T. et al. in Transplantation Proceedings, XIX(5):36-39,Suppl. 6 (1987).

FKBP-12 = details: cited from earlier work
Candida albicans = details: particularly against Candida albicans, both in vitro and in vivo; cited from earlier work
[2] = alone or in combination with picibanil; cited from earlier work
[3] = tested on: experimental allergic encephalomyelitis; details: model for multiple sclerosis; cited from earlier work
adjuvant arthritis = details: model for rheumatoid arthritis; cited from earlier work
[4] = tested on: formation of IgE-like antibodies; details: cited from earlier work
[5] = tested on: organ grafts in histoincompatible rodents; details: cited from earlier work
T-cell activation = details: cited from earlier work
[6] = Mixed Leukocyte Response (MLR), Table 1, read-out: IC50

Question: Which IC50 [1, 6] does the source give for `CO[C@H]1C[C@@H]2CC[C@@H](C)[C@@](O)(O2)C(=O)C(=O)N2CCCC[C@H]2C(=O)O[C@H]([C@H](C)C[C@@H]2CC[C@@H](OC(=O)N3CCOCC3)[C@H](OC)C2)CC(=O)[C@H](C)/C=C(\C)[C@@H](O)[C@@H](OC)C(=O)[C@H](C)C[C@H](C)/C=C/C=C/C=C/1C` [Example 3] here?
Answer: 0.13 nM

Question: For `CO[C@H]1C[C@@H]2CC[C@@H](C)[C@@](O)(O2)C(=O)C(=O)N2CCCC[C@H]2C(=O)O[C@H]([C@H](C)C[C@@H]2CC[C@H](O)[C@H](OC)C2)CC(=O)[C@H](C)/C=C(\C)[C@@H](O)[C@@H](OC)C(=O)[C@H](C)C[C@H](C)/C=C/C=C/C=C/1C` [Example 10, 42-epi-rapamycin], which IC50 [1] is on record?
Answer: 0.03 nM

Question: For `CO[C@H]1C[C@@H]2CC[C@@H](C)[C@@](O)(O2)C(=O)C(=O)N2CCCC[C@H]2C(=O)O[C@H]([C@H](C)C[C@@H]2CC[C@@H](OC(=O)N(C)OC)[C@H](OC)C2)CC(=O)[C@H](C)/C=C(\C)[C@@H](O)[C@@H](OC)C(=O)[C@H](C)C[C@H](C)/C=C/C=C/C=C/1C` [Example 17], which IC50 [1, 6] is on record?
Answer: 0.15 nM

Question: With `CO[C@H]1C[C@@H]2CC[C@@H](C)[C@@](O)(O2)C(=O)C(=O)N2CCCC[C@H]2C(=O)O[C@H]([C@H](C)C[C@@H]2CC[C@H](Sc3ncc[nH]3)[C@H](OC)C2)CC(=O)[C@H](C)/C=C(\C)[C@@H](O)[C@@H](OC)C(=O)[C@H](C)C[C@H](C)/C=C/C=C/C=C/1C` [Example 38] as the molecule, how does the IC50 [1, 6] read?
Answer: 0.03 nM

Question: For `CO[C@H]1C[C@@H]2CC[C@@H](C)[C@@](O)(O2)C(=O)C(=O)N2CCCC[C@H]2C(=O)O[C@H]([C@H](C)C[C@@H]2CC[C@H](Sc3nccn3C)[C@H](OC)C2)CC(=O)[C@H](C)/C=C(\C)[C@@H](O)[C@@H](OC)C(=O)[C@H](C)C[C@H](C)/C=C/C=C/C=C/1C` [Example 39], which IC50 [1, 6] is on record?
Answer: 0.14 nM

Question: For `CO[C@H]1C[C@@H]2CC[C@@H](C)[C@@](O)(O2)C(=O)C(=O)N2CCCC[C@H]2C(=O)O[C@H]([C@H](C)C[C@@H]2CC[C@H](N=[N+]=[N-])[C@H](OC)C2)CC(=O)[C@H](C)/C=C(\C)[C@@H](O)[C@@H](OC)C(=O)[C@H](C)C[C@H](C)/C=C/C=C/C=C/1C` [Example 50], which IC50 [1, 6] is on record?
Answer: 0.96 nM

Question: Which IC50 [1, 6] does the source give for `CO[C@H]1C[C@@H]2CC[C@@H](C)[C@@](O)(O2)C(=O)C(=O)N2CCCC[C@H]2C(=O)O[C@H]([C@H](C)C[C@@H]2CC[C@H](n3ccc(=O)cc3)[C@H](OC)C2)CC(=O)[C@H](C)/C=C(\C)[C@@H](O)[C@@H](OC)C(=O)[C@H](C)C[C@H](C)/C=C/C=C/C=C/1C` [Example 71] here?
Answer: 0.12 nM

Question: For `CO[C@H]1C[C@@H]2CC[C@@H](C)[C@@](O)(O2)C(=O)C(=O)N2CCCC[C@H]2C(=O)O[C@H]([C@H](C)C[C@@H]2CC[C@H](n3ccccc3=O)[C@H](OC)C2)CC(=O)[C@H](C)/C=C(\C)[C@@H](O)[C@@H](OC)C(=O)[C@H](C)C[C@H](C)/C=C/C=C/C=C/1C` [Example 72], which IC50 [1, 6] is on record?
Answer: 0.99 nM

Question: With `CO[C@H]1C[C@@H]2CC[C@@H](C)[C@@](O)(O2)C(=O)C(=O)N2CCCC[C@H]2C(=O)O[C@H]([C@H](C)C[C@@H]2CC[C@H](OC)[C@H](OC)C2)CC(=O)[C@H](C)/C=C(\C)[C@@H](O)[C@@H](OC)C(=O)[C@H](C)C[C@H](C)/C=C/C=C/C=C/1C` [Example 74] as the molecule, how does the IC50 [1, 6] read?
Answer: 1.81 nM

Question: With `C=CC[C@@H]1/C=C(\C)C[C@H](C)C[C@H](OC)[C@H]2O[C@@](O)(C(=O)C(=O)N3CCCC[C@H]3C(=O)O[C@H](/C(C)=C/[C@@H]3CC[C@@H](O)[C@H](OC)C3)[C@H](C)[C@@H](O)CC1=O)[C@H](C)C[C@@H]2OC` [FK-506] as the molecule, how does the “binding to FKBP-12” value (FKBP-12) read?
Answer: binds to FKBP-12

Question: Which antifungal activity (Candida albicans) does the source give for `CO[C@H]1C[C@@H]2CC[C@@H](C)[C@@](O)(O2)C(=O)C(=O)N2CCCC[C@H]2C(=O)O[C@H]([C@H](C)C[C@@H]2CC[C@@H](O)[C@H](OC)C2)CC(=O)[C@H](C)/C=C(\C)[C@@H](O)[C@@H](OC)C(=O)[C@H](C)C[C@H](C)/C=C/C=C/C=C/1C` [rapamycin] here?
Answer: antifungal activity

Question: And the antitumor activity [2]?
Answer: antitumor activity

Question: And the “effectiveness as an immunosuppressant” value [3]?
Answer: effective as an immunosuppressant

Question: What about the “effectiveness as an immunosuppressant” value (adjuvant arthritis) of the same molecule?
Answer: effective as an immunosuppressant

Question: And the “inhibition of formation of IgE-like antibodies” value [4]?
Answer: effectively inhibit the formation of IgE-like antibodies

Question: And the “survival time of organ grafts” value [5]?
Answer: prolong survival time of organ grafts

Question: What about the “inhibition of T-cell activation” value (T-cell activation) of the same molecule?
Answer: inhibit T-cell activation

Question: What about the “binding to FKBP-12” value (FKBP-12) of the same molecule?
Answer: binds to FKBP-12
